pIC50: −log10 of the molar value.
Assays:
human V2 receptor = target: T1, human V2 receptor (Homo sapiens, UniProt P30518); test: Cellular in vitro assay for determining vasopressin receptor activity (V2 cell line, CRE-luciferase); assay type: cell-based; conditions: CHO cell line transfected with the human V2 receptor; agonist [Arg8]-vasopressin at EC50 concentration; 3 hours incubation; read-out: IC50 hV2
T1 construct: expressed in transfected cells; host or cells: CHO K1 (Chinese hamster ovary) expressing firefly luciferase under a CRE-responsive promoter
Procedure: (§1) B-1. Cellular In Vitro Assay for Determining Vasopressin Receptor Activity
(§2) The identification of agonists and antagonists of the V 1 a and V2 vasopressin receptors from humans, rats and dogs as well as the quantification of the activity of the compounds of the invention is carried out using recombinant cell lines. These cell lines originally derive from a hamster's ovary epithelial cell (Chinese Hamster Ovary, CHO K1, ATCC: American Type Culture Collection, Manassas, Va. 20108, USA). The test cell lines constitutively express the human, rat or dog
(§3) V1 a or V2 receptors. In case of the Gag-coupled V 1 a receptors, cells are also stably transfected with a modified form of the calcium-sensitive photoproteins aequorin (human and rat V1a) or obelin (dog V 1 a), which, after reconstitution with the cofactor coelenterazine, emit light when there are increases in free calcium concentrations [Rizzuto R, Simpson A W, Brini M, Pozzan T, Nature 358, 325-327 (1992); Illarionov B A, Bondar V S, Illarionova V A, Vysotski E S, Gene 153 (2), 273-274 (1995)]. The resulting vasopressin receptor cells react to stimulation of the recombinantly expressed V 1 a receptors by intracellular release of calcium ions, which can be quantified by the resulting photoprotein luminescence. The Gs-coupled V2 receptors are stably transfected into cell lines expressing the gene for firefly luciferase under control of a CRE-responsible promoter. Activation of V2 receptors induces the activation of the CRE-responsive promoter via cAMP increase, thereby inducing the expression of firefly luciferase. The light emitted by photoproteins of V1a cell lines as well as the light emitted by firefly luciferase of V2 cell lines corresponds to the activation or inhibition of the respective vasopressin receptor. The bioluminescence of the cell lines is detected using a suitable luminometer [Milligan G, Marshall F, Rees S, Trends in Pharmacological Sciences 17, 235-237 (1996)].
Vasopressin V2 Receptor Cell Lines:
On the day before the assay, the cells are plated out in culture medium (DMEM/F12, 2% FCS, 2 mM glutamine, 10 mM HEPES) in 384-well microtiter plates and kept in a cell incubator (96% humidity, 5% v/v CO2, 37° C.). On the day of the assay, test compounds in various concentrations and the agonist [Arg^8]-vasopressin at EC50 concentration are added together to the wells, and plates are incubated for 3 hours in a cell incubator. Upon addition of the cell lysis reagent Triton™ and the substrate luciferin, luminescence of firefly luciferase is measured in a luminometer.
(§4) Table 1A below lists individual IC50 values for the compounds of the invention (including racemic mixtures as well as separated enantiomers) that were obtained from cell lines transfected with the human V1a or V2 receptor: […]

human V1a receptor = target: T2, human V1a receptor (Homo sapiens, UniProt P37288); test: Cellular in vitro assay for determining vasopressin receptor activity (V1a cell line, aequorin luminescence); assay type: cell-based; conditions: for pIC50: CHO cell line transfected with the human V1a receptor, agonist [Arg8]-vasopressin at EC50 concentration, read-out: IC50 hV1a; for ratio IC50 hV2/hV1a: ratio of cellular IC50 values, human V2 over human V1a
T2 construct: expressed in transfected cells; host or cells: CHO K1 (Chinese hamster ovary), also stably transfected with modified aequorin
Procedure: as §1, §2, §3
Vasopressin V1a Receptor Cell Lines:
On the day before the assay, the cells are plated out in culture medium (DMEM/F12, 2% FCS, 2 mM glutamine, 10 mM HEPES, 5 μg/ml coelenterazine) in 384-well microtiter plates and kept in a cell incubator (96% humidity, 5% v/v CO2, 37° C.). On the day of the assay, test compounds in various concentrations are placed for 10 minutes in the wells of the microtiter plate before the agonist [Arg^8]-vasopressin at EC50 concentration is added. The resulting light signal is measured immediately in a luminometer.
as §4

T2 sequence (P37288 whole entry): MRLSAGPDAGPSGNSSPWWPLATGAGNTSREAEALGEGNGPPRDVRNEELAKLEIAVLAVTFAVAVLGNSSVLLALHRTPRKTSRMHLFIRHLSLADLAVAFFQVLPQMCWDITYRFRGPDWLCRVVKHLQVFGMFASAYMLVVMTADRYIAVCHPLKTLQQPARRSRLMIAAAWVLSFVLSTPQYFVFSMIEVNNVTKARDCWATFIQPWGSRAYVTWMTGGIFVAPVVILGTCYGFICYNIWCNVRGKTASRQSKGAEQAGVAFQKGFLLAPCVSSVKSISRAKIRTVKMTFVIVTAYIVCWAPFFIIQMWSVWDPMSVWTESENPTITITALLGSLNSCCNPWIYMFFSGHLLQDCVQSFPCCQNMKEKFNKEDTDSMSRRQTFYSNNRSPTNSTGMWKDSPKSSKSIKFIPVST
T1 sequence (P30518 whole entry): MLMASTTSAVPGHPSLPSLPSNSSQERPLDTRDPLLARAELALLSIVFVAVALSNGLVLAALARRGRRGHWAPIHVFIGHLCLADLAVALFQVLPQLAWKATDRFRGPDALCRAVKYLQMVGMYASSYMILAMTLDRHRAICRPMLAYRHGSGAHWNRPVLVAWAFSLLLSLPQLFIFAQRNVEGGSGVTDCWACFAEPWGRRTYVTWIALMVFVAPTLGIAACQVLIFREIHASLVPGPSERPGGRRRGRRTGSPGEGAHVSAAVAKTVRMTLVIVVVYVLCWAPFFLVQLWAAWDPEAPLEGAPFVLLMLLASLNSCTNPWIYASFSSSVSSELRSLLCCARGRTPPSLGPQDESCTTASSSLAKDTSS

NC(=O)c1nc(Cn2nc(-c3ccc(Cl)cc3)n(C[C@H](O)C(F)(F)F)c2=O)nn1-c1c(F)cccc1Cl [Example 21, 1-(2-Chloro-6-fluorophenyl)-3-({3-(4-chlorophenyl)-5-oxo-4-[(2S)-3,3,3-trifluoro-2-hydroxypropyl]-4,5-dihydro-1H-1,2,4-triazol-1-yl}methyl)-1H-1,2,4-triazole-5-carboxamide]
pIC50 (human V2 receptor): 8.28
pIC50 (human V1a receptor): 9.12
ratio IC50 hV2/hV1a (human V1a receptor): 7.0

NC(=O)c1nc(Cn2nc(-c3ccc(Cl)cc3)n(C[C@H](O)C(F)(F)F)c2=O)nn1-c1c(F)cccc1F [Example 25, 3-({3-(4-Chlorophenyl)-5-oxo-4-[(2S)-3,3,3-trifluoro-2-hydroxypropyl]-4,5-dihydro-1H-1,2,4-triazol-1-yl}methyl)-1-(2,6-difluorophenyl)-1H-1,2,4-triazole-5-carboxamide]
pIC50 (human V2 receptor): 8.19
pIC50 (human V1a receptor): 8.53
ratio IC50 hV2/hV1a (human V1a receptor): 2.2

NC(=O)c1nc(Cn2nc(-c3ccc(Cl)cc3)n(C[C@H](O)C(F)(F)F)c2=O)nn1-c1ccccc1F [Example 29, 3-({3-(4-Chlorophenyl)-5-oxo-4-[(2S)-3,3,3-trifluoro-2-hydroxypropyl]-4,5-dihydro-1H-1,2,4-triazol-1-yl}methyl)-1-(2-fluorophenyl)-1H-1,2,4-triazole-5-carboxamide]
pIC50 (human V2 receptor): 7.62
pIC50 (human V1a receptor): 7.88
ratio IC50 hV2/hV1a (human V1a receptor): 1.8

NC(=O)c1nc(Cn2nc(-c3ccc(Cl)cc3)n(C[C@H](O)C(F)(F)F)c2=O)nn1-c1ccncc1F [Example 8, 3-({3-(4-Chlorophenyl)-5-oxo-4-[(2S)-3,3,3-trifluoro-2-hydroxypropyl]-4,5-dihydro-1H-1,2,4-triazol-1-yl}methyl)-1-(3-fluoropyridin-4-yl)-1H-1,2,4-triazole-5-carboxamide]
pIC50 (human V2 receptor): 6.61
pIC50 (human V1a receptor): 7.15
ratio IC50 hV2/hV1a (human V1a receptor): 3.5

COc1cccnc1-n1nc(Cn2nc(-c3ccc(Cl)cc3)n(C[C@H](O)C(F)(F)F)c2=O)nc1C(N)=O [Example 4, 3-({3-(4-Chlorophenyl)-5-oxo-4-[(2S)-3,3,3-trifluoro-2-hydroxypropyl]-4,5-dihydro-1H-1,2,4-triazol-1-yl}methyl)-1-(3-methoxypyridin-2-yl)-1H-1,2,4-triazole-5-carboxamide]
pIC50 (human V2 receptor): 7.57
pIC50 (human V1a receptor): 8.14
ratio IC50 hV2/hV1a (human V1a receptor): 3.8

NC(=O)c1nc(Cn2nc(-c3ccc(Cl)cc3)n(C[C@H](O)C(F)(F)F)c2=O)nn1-c1c(Cl)cccc1Cl [Example 22, 3-({3-(4-Chlorophenyl)-5-oxo-4-[(2S)-3,3,3-trifluoro-2-hydroxypropyl]-4,5-dihydro-1H-1,2,4-triazol-1-yl}methyl)-1-(2,6-dichlorophenyl)-1H-1,2,4-triazole-5-carboxamide]
pIC50 (human V2 receptor): 8.44
pIC50 (human V1a receptor): 8.78
ratio IC50 hV2/hV1a (human V1a receptor): 2.2

CCc1cccnc1-n1nc(Cn2nc(-c3ccc(Cl)cc3)n(C[C@H](O)C(F)(F)F)c2=O)nc1C(N)=O [Example 1, 3-({3-(4-Chlorophenyl)-5-oxo-4-[(2S)-3,3,3-trifluoro-2-hydroxypropyl]-4,5-dihydro-1H-1,2,4-triazol-1-yl}methyl)-1-(3-ethylpyridin-2-yl)-1H-1,2,4-triazole-5-carboxamide]
pIC50 (human V2 receptor): 8.06
pIC50 (human V1a receptor): 8.29
ratio IC50 hV2/hV1a (human V1a receptor): 1.7

NC(=O)c1nc(Cn2nc(-c3ccc(Cl)cc3)n(C[C@H](O)C(F)(F)F)c2=O)nn1-c1ccccc1Br [Example 17, 1-(2-Bromophenyl)-3-({3-(4-chlorophenyl)-5-oxo-4-[(2S)-3,3,3-trifluoro-2-hydroxypropyl]-4,5-dihydro-1H-1,2,4-triazol-1-yl}methyl)-1H-1,2,4-triazole-5-carboxamide]
pIC50 (human V2 receptor): 8.15
pIC50 (human V1a receptor): 9.35
ratio IC50 hV2/hV1a (human V1a receptor): 15.6

NC(=O)c1nc(Cn2nc(-c3ccc(Cl)cc3)n(C[C@H](O)C(F)(F)F)c2=O)nn1-c1ccc(F)cc1Cl [Example 26, 1-(2-Chloro-4-fluorophenyl)-3-({3-(4-chlorophenyl)-5-oxo-4-[(2S)-3,3,3-trifluoro-2-hydroxypropyl]-4,5-dihydro-1H-1,2,4-triazol-1-yl}methyl)-1H-1,2,4-triazole-5-carboxamide]
pIC50 (human V2 receptor): 7.77
pIC50 (human V1a receptor): 8.46
ratio IC50 hV2/hV1a (human V1a receptor): 4.9

NC(=O)c1nc(Cn2nc(-c3ccc(Cl)cc3)n(C[C@H](O)C(F)(F)F)c2=O)nn1-c1ccccc1 [Example 30, 3-({3-(4-Chlorophenyl)-5-oxo-4-[(2S)-3,3,3-trifluoro-2-hydroxypropyl]-4,5-dihydro-1H-1,2,4-triazol-1-yl}methyl)-1-phenyl-1H-1,2,4-triazole-5-carboxamide]
pIC50 (human V2 receptor): 8.01
pIC50 (human V1a receptor): 7.85
ratio IC50 hV2/hV1a (human V1a receptor): 0.7

Cc1ccnc(Cl)c1-n1nc(Cn2nc(-c3ccc(Cl)cc3)n(C[C@H](O)C(F)(F)F)c2=O)nc1C(N)=O [Example 12, 1-(2-Chloro-4-methylpyridin-3-yl)-3-({3-(4-chlorophenyl)-5-oxo-4-[(2 S)-3,3,3-trifluoro-2-hydroxypropyl]-4,5-dihydro-1H-1,2,4-triazol-1-yl}methyl)-1H-1,2,4-triazole-5-carboxamide]
pIC50 (human V2 receptor): 6.82
pIC50 (human V1a receptor): 6.90
ratio IC50 hV2/hV1a (human V1a receptor): 1.2

NC(=O)c1nc(Cn2nc(-c3ccc(Cl)cc3)n(C[C@H](O)C(F)(F)F)c2=O)nn1-c1cccc(F)c1 [Example 32, 3-({3-(4-Chlorophenyl)-5-oxo-4-[(2S)-3,3,3-trifluoro-2-hydroxypropyl]-4,5-dihydro-1H-1,2,4-triazol-1-yl}methyl)-1-(3-fluorophenyl)-1H-1,2,4-triazole-5-carboxamide]
pIC50 (human V2 receptor): 7.62
pIC50 (human V1a receptor): 7.74
ratio IC50 hV2/hV1a (human V1a receptor): 1.3

NC(=O)c1nc(Cn2nc(-c3ccc(Cl)cc3)n(C[C@H](O)C(F)(F)F)c2=O)nn1-c1ccncc1Cl [Example 6, 3-({3-(4-Chlorophenyl)-5-oxo-4-[(2S)-3,3,3-trifluoro-2-hydroxypropyl]-4,5-dihydro-1H-1,2,4-triazol-1-yl}methyl)-1-(3-chloropyridin-4-yl)-1H-1,2,4-triazole-5-carboxamide]
pIC50 (human V2 receptor): 6.41
pIC50 (human V1a receptor): 7.57
ratio IC50 hV2/hV1a (human V1a receptor): 14.4

COc1ccccc1-n1nc(Cn2nc(-c3ccc(Cl)cc3)n(C[C@H](O)C(F)(F)F)c2=O)nc1C(N)=O [Example 34, 3-({3-(4-Chlorophenyl)-5-oxo-4-[(2S)-3,3,3-trifluoro-2-hydroxypropyl]-4,5-dihydro-1H-1,2,4-triazol-1-yl}methyl)-1-(2-methoxyphenyl)-1H-1,2,4-triazole-5-carboxamide]
pIC50 (human V2 receptor): 8.12
pIC50 (human V1a receptor): 8.95
ratio IC50 hV2/hV1a (human V1a receptor): 6.9

NC(=O)c1nc(Cn2nc(-c3ccc(Cl)cc3)n(C[C@H](O)C(F)(F)F)c2=O)nn1-c1cccc(Cl)c1 [Example 33, 1-(3-Chlorophenyl)-3-({3-(4-chlorophenyl)-5-oxo-4-[(2S)-3,3,3-trifluoro-2-hydroxypropyl]-4,5-dihydro-1H-1,2,4-triazol-1-yl}methyl)-1H-1,2,4-triazole-5-carboxamide]
pIC50 (human V2 receptor): 8.34
pIC50 (human V1a receptor): 7.62
ratio IC50 hV2/hV1a (human V1a receptor): 0.2

NC(=O)c1nc(Cn2nc(-c3ccc(Cl)cc3)n(C[C@H](O)C(F)(F)F)c2=O)nn1-c1cc(Cl)ccn1 [Example 15, 3-({3-(4-Chlorophenyl)-5-oxo-4-[(2S)-3,3,3-trifluoro-2-hydroxypropyl]-4,5-dihydro-1H-1,2,4-triazol-1-yl}methyl)-1-(4-chloropyridin-2-yl)-1H-1,2,4-triazole-5-carboxamide]
pIC50 (human V2 receptor): 7.46
pIC50 (human V1a receptor): 6.76
ratio IC50 hV2/hV1a (human V1a receptor): 0.2

Source: patent US20190119251A1, “AMIDE-SUBSTITUTED ARYLTRIAZOLE DERIVATIVES AND USES THEREOF” (BAYER PHARMA AKTIENGESELLSCHAFT, priority 2016, published 2019)
